According to patent publication US20040266885A1, “Wood preservative compositions” (priority 2001, published 2004):
“And” between values parts separate entries of the source, which are not always exact repeats. Equal entries are not always repeated. “Also recorded” adds a separate entry of the source. Where two headings read alike, the source gives them in different places.

Key:
C. formosanus = test: Laboratory termite test, modified ASTM 3345-74, soil/sand culture, NaOH carrier, blocks not leached; format: in vivo; conditions: for termite survival / mortality at the end of the test period / Tunneling Activity / Visible Mortality / prevention of termite attack / restriction of termite damage: 4 weeks; for prevention of termite attack / restriction of termite damage: all concentrations used (1-10%); for Mean Rating (termite attack): mean of 4 specimens; for Mean Rating (termite attack) / Termite Attack Rating: 4 weeks soil/sand culture; for Termite Attack Rating: single specimen; for repellent effect (soil covering of test specimens): specimens treated with 5, 7 and 10% solutions only partially soil covered; for Termite Attack Rating: key: Score 0: No attack; Score 1: Attempted attack; Score 2: Slight attack; Score 3: Average attack; Score 4: Strong attack
Experimental: A further experiment was undertaken according to the modified ASTM 3345-74 test detailed in Example 2 with the following 6 changes to the protocol:
1. The solutions tested were as follows:
2. The incubation substrate was a soil/sand mixture (1:1) to which had been added 75 ml of de-ionised water. This substrate was chosen as being more representative of the laboratory conditions under which the wild caught termites (C. formosanus) were maintained.
3. The treated timber samples were positioned on plastic mesh on top of the soil substrate. This method of placement is that used in European Standard EN 117 and is more representative of the feeding conditions of the wild caught termites maintained in the laboratory.
4. 250 termites were used in each incubation vessel.
5. The wood block specimens were not subjected to a leaching process.
6. Evidence of termite tunneling activity and mortality was determined at completion of the incubation period only (4 weeks) and no examinations were undertaken for surface activity.

Coptotermes formosanus = conditions: for Mean Rating (termite attack): mean of 4 specimens; for Mean Rating (termite attack) / Termite Attack Rating: 4 weeks sand culture; for Termite Attack Rating: single specimen;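 for Termite Attack Rating: score 0 no attack 2 slight 3 average 4 strong attack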
Excerpt: A laboratory test was undertaken to determine the toxic values of novel actives against termites. The active materials used were TBBA, TBBE [4,4′-ethylidenebis(2,6-dibromophenol)] [CAS RN=12639-25-3] (Sample Number 1392-82-03); TBBZ [4,4′-cyclohexylidene(2,6-dibromophenol)] [CAS RN=53350-96-2] (Sample Number 1392-72-03) and TBA, 2,2′,6-tribromo-4,4′-isopropylidenediphenol, CAS 6386-73-8 (Sample Number 1392-75-03).
The test was undertaken largely according to the strictures laid down in ASTM 3345-74 (the American standard laboratory test to assess the termite resistant properties of wood to wood destroying termites). The test method allows for the exposure of treated buried wood blocks to termites (Reticulitermes or Coptotermes spp.) over a period of 4 weeks. Efficacy of the product is determined by the extent of termite damage to the treated timber specimens through a scoring system. The test was slightly modified from the standard ASTM test by reducing the number of replicate wood specimens from 5 to 4.
Score 1: Attempted attack
The toxic values of the preservative product (in kg/m^3 of wood) fall between two values as follows:
1) The lowest concentration which protects the wood (i.e. the concentration at which none of the test specimens show a degree of attack greater than 1).
The termites employed were Coptotermes formosanus.
All wood bock specimens were of Southern Yellow Pine sapwood (Pinus spp.) with dimensions of 25.4×25.4×6.4 mm in accordance with ASTM D3345-74. All blocks were vacuum impregnated with the relevant solutions in accordance with ASTM D3345-74. Distribution of blocks in the test was as follows:
The test specimens were conditioned and subjected to a leaching schedule (after vacuum impregnation) as stipulated in ASTM D1413-76 (as recommended in ASTM D3345-74). All test specimens were then air dried for two weeks to constant weight.
The specimens were each positioned at the base of a 500 ml polyethylene culture jar (numbered according to each test specimen) and covered with 200 g of sand (pre-washed, sterilised and air conditioned in the laboratory) to which was added 25 g of de-ionised water. A further two containers containing watered sand but no timber were also prepared. All the jars were sealed (lids pre-pierced and covered with stainless steel mesh for aeration).
Two days after specimen placement, 200 termites were added to each culture jar (90% workers and 10% soldiers) and the jars re-sealed. The jars were incubated at a mean temperature and relative humidity of 27.5° C. and 75-90% for 4 weeks. The containers were provided with an artificial lighting regime of 10 hours light and 14 hours darkness.
After 1 week and 4 weeks each container was examined to determine termite mortality and normal tunneling behaviour patterns as follows:
Is there tunneling present: YES/NO
Are there any termites on the surface of the soil: YES/NO (if yes how many, i.e. 1-25% of pop, 26-50% of pop, 51-100% of pop.)
Are any dead termites visible: YES/NO (if yes how many, 1-33%, 34-66%, 67-100%)
After 4 weeks the test specimens were removed and cleaned of debris. Each block was examined and visually rated for termite damage using the scoring system detailed above.

[1] = 1 week, solution conc. 1%, ethanol carrier
[2] = 1 week, solution conc. 3%, ethanol carrier
[3] = 1 week, solution conc. 5%, ethanol carrier
[4] = 1 week, solution conc. 7%, ethanol carrier
[5] = 1 week, solution conc. 10%, ethanol carrier
[6] = 4 weeks, solution conc. 1%, ethanol carrier
[7] = 4 weeks, solution conc. 3%, ethanol carrier
[8] = 4 weeks, solution conc. 5%, ethanol carrier
[9] = 4 weeks, solution conc. 7%, ethanol carrier
[10] = 4 weeks, solution conc. 10%, ethanol carrier
[11] = solution conc. 1%, ethanol carrier
[12] = solution conc. 3%, ethanol carrier
[13] = solution conc. 5%, ethanol carrier
[14] = solution conc. 7%, ethanol carrier
[15] = solution conc. 10%, ethanol carrier

Oc1c(Br)cc(Cc2cc(Br)c(O)c(Br)c2)cc1Br [TBBF]
termiticidal and termite repellent activity (conclusion) (C. formosanus): significant termiticidal and termite repellent activity
termite survival / mortality at the end of the test period (C. formosanus): the majority of the termites were killed by the end of the test period
Tunneling Activity (C. formosanus; solution conc. 1%): Yes
Visible Mortality (C. formosanus; solution conc. 1%): 34-66%
Tunneling Activity (C. formosanus; solution conc. 3%): Yes
Visible Mortality (C. formosanus; solution conc. 3%): 34-66%
Tunneling Activity (C. formosanus; solution conc. 5%): Yes
Visible Mortality (C. formosanus; solution conc. 5%): 67-100%
Tunneling Activity (C. formosanus; solution conc. 7%): Yes
Visible Mortality (C. formosanus; solution conc. 7%): 67-100%
Tunneling Activity (C. formosanus; solution conc. 10%): Yes
Visible Mortality (C. formosanus; solution conc. 10%): 67-100%
prevention of termite attack / restriction of termite damage (C. formosanus): significant attack was prevented by all concentrations; also recorded: a very significant effect in restricting termite damage
toxic value, lower (concentration at which the wood is no longer sufficiently protected) (C. formosanus; mean loading, solution concentration 1%, not leached): 6.78 kg/m^3
toxic value, upper (lowest concentration which protects the wood) (C. formosanus; mean loading, solution concentration 3% (TBBF) or 1%, not leached): 20.53 kg/m^3
Mean Rating (termite attack) (C. formosanus; solution conc. 1%): 1.50
Termite Attack Rating (C. formosanus; solution conc. 1%): 3 and 1
Mean Rating (termite attack) (C. formosanus; solution conc. 3%): 0.75
Termite Attack Rating (C. formosanus; solution conc. 3%): 0 and 1
Mean Rating (termite attack) (C. formosanus; solution conc. 5%): 0.5
Termite Attack Rating (C. formosanus; solution conc. 5%): 0 and 1
Mean Rating (termite attack) (C. formosanus; solution conc. 7%): 0.75
Termite Attack Rating (C. formosanus; solution conc. 7%): 1 and 0
Mean Rating (termite attack) (C. formosanus; solution conc. 10%): 0.5
Termite Attack Rating (C. formosanus; solution conc. 10%): 1 and 0
repellent effect (soil covering of test specimens) (C. formosanus): a repellent effect

O=S(=O)(c1cc(Br)c(O)c(Br)c1)c1cc(Br)c(O)c(Br)c1 [TBBS]
termiticidal and termite repellent activity (conclusion) (C. formosanus): significant termiticidal and termite repellent activity
termite survival / mortality at the end of the test period (C. formosanus): significant termite mortality by the end of the test period
Tunneling Activity (C. formosanus; solution conc. 1%): Yes
Visible Mortality (C. formosanus; solution conc. 1%): 67-100%
Tunneling Activity (C. formosanus; solution conc. 3%): Yes
Visible Mortality (C. formosanus; solution conc. 3%): 34-66% and 67-100%
Tunneling Activity (C. formosanus; solution conc. 5%): Yes
Visible Mortality (C. formosanus; solution conc. 5%): 67-100%
Tunneling Activity (C. formosanus; solution conc. 7%): Yes
Visible Mortality (C. formosanus; solution conc. 7%): 67-100% and 100%
Tunneling Activity (C. formosanus; solution conc. 10%): Yes
Visible Mortality (C. formosanus; solution conc. 10%): 34-66% and 67-100%
prevention of termite attack / restriction of termite damage (C. formosanus): significant attack was prevented by all concentrations; also recorded: a very significant effect in restricting termite damage
Mean Rating (termite attack) (C. formosanus; solution conc. 1%): 1.00
Termite Attack Rating (C. formosanus; solution conc. 1%): 1
Mean Rating (termite attack) (C. formosanus; solution conc. 3%): 0.5
Termite Attack Rating (C. formosanus; solution conc. 3%): 1 and 0
Mean Rating (termite attack) (C. formosanus; solution conc. 5%): 1.00
Termite Attack Rating (C. formosanus; solution conc. 5%): 1
Mean Rating (termite attack) (C. formosanus; solution conc. 7%): 0.75
Termite Attack Rating (C. formosanus; solution conc. 7%): 1 and 0
Mean Rating (termite attack) (C. formosanus; solution conc. 10%): 0.25
Termite Attack Rating (C. formosanus; solution conc. 10%): 0 and 1
repellent effect (soil covering of test specimens) (C. formosanus): a repellent effect was noted

Oc1c(Br)cc(C2(c3cc(Br)c(O)c(Br)c3)CCCCC2)cc1Br [TBBZ, 4,4′-cyclohexylidene(2,6-dibromophenol)]
Surface Activity (termites on the surface of the soil) (Coptotermes formosanus; [1]): No/No
Tunneling Activity (Coptotermes formosanus; [1]): Yes/Yes
Visible Mortality (Coptotermes formosanus; [1]): No/No
Surface Activity (termites on the surface of the soil) (Coptotermes formosanus; [2]): No/No
Tunneling Activity (Coptotermes formosanus; [2]): Yes/Yes
Visible Mortality (Coptotermes formosanus; [2]): No
Surface Activity (termites on the surface of the soil) (Coptotermes formosanus; [3]): No/No
Tunneling Activity (Coptotermes formosanus; [3]): Yes/Yes
Visible Mortality (Coptotermes formosanus; [3]): No
Surface Activity (termites on the surface of the soil) (Coptotermes formosanus; [4]): 1-25 % (of pop.)
Tunneling Activity (Coptotermes formosanus; [4]): Yes/Yes
Visible Mortality (Coptotermes formosanus; [4]): No
Surface Activity (termites on the surface of the soil) (Coptotermes formosanus; [5]): 1-25 % (of pop.)
Tunneling Activity (Coptotermes formosanus; [5]): Yes/Yes
Visible Mortality (Coptotermes formosanus; [5]): No
Surface Activity (termites on the surface of the soil) (Coptotermes formosanus; [6]): No/No
Tunneling Activity (Coptotermes formosanus; [6]): Yes/Yes
Visible Mortality (Coptotermes formosanus; [6]): No/No
Surface Activity (termites on the surface of the soil) (Coptotermes formosanus; [7]): No/No
Tunneling Activity (Coptotermes formosanus; [7]): Yes/Yes
Visible Mortality (Coptotermes formosanus; [7]): 1-33 % (of pop.)
Surface Activity (termites on the surface of the soil) (Coptotermes formosanus; [8]): No/No
Tunneling Activity (Coptotermes formosanus; [8]): Yes/Yes
Visible Mortality (Coptotermes formosanus; [8]): 34-66 % (of pop.)
Surface Activity (termites on the surface of the soil) (Coptotermes formosanus; [9]): No
Tunneling Activity (Coptotermes formosanus; [9]): Yes/Yes
Visible Mortality (Coptotermes formosanus; [9]): 34-66 % (of pop.)
Surface Activity (termites on the surface of the soil) (Coptotermes formosanus; [10]): No
Tunneling Activity (Coptotermes formosanus; [10]): Yes/Yes
Visible Mortality (Coptotermes formosanus; [10]): 67-100 % (of pop.)
reduction in termite attack (Coptotermes formosanus; concentrated solutions, followed by leaching): a significant reduction in termite attack; also recorded: the higher concentrations do reduce termite attack
repellent effect on termites (surface activity data) (Coptotermes formosanus; ethanol carrier): a degree of termite repellency
Mean Rating (termite attack) (Coptotermes formosanus; [11]): 2.50
Termite Attack Rating (Coptotermes formosanus; [11]): 4 and 2
Mean Rating (termite attack) (Coptotermes formosanus; [12]): 1.50
Termite Attack Rating (Coptotermes formosanus; [12]): 2 and 1
Mean Rating (termite attack) (Coptotermes formosanus; [13]): 1.25
Termite Attack Rating (Coptotermes formosanus; [13]): 1 and 2
Mean Rating (termite attack) (Coptotermes formosanus; [14]): 1.25
Termite Attack Rating (Coptotermes formosanus; [14]): 1 and 2
Mean Rating (termite attack) (Coptotermes formosanus; [15]): 1.25
Termite Attack Rating (Coptotermes formosanus; [15]): 1 and 2
